From US12116357B2, “Heteroaryl-triazole and heteroaryl-tetrazole compounds as pesticides” (Bayer Aktiengesellschaft, priority 2018, dated 2024)

Tests used:
Assay type in all cases: in vivo
Ctenocephalides felis [1] = assay: Ctenocephalides felis in-vitro contact test, adult cat flea; settings: 5 μg/cm^2, after 48 hours, read-out: efficacy (fleas dead or moribund)
Description: (§1) 9 mg compound is solved in 1 ml acetone and diluted with acetone to the desired concentration. 250 μl of the test solution is filled in 25 ml glass test tubes and homogeneously distributed on the inner walls by rotation and tilting on a shaking device (2 h at 30 rpm). With a compound concentration of 900 ppm, an inner surface of 44.7 cm^2 and a homogeneous distribution, a dose of 5 μg/cm^2 is achieved.
(§2) After the solvent has evaporated, each test tube is filled with 5-10 adult cat fleas (Ctenocephalides felis), closed with a perforated lid and incubated in a lying position at room temperature and relative humidity. After 48 hours efficacy is determined. The fleas are patted on the ground of the tubes and are incubated on a heating plate at 45-50° C. for at most 5 minutes. Immotile or uncoordinated moving fleas, which are not able to escape the heat by climbing upwards, are marked as dead or moribund.
An efficacy of 100% means all fleas are dead or moribund; 0% means no fleas are dead or moribund.

Boophilus microplus = Boophilus microplus injection test; settings: Rhipicephalus microplus, 168 h, 20 μg/animal, egg deposition after 7 days, read-out: efficacy (infertile eggs)
Description: (§3) • Solvent: dimethyl sulfoxide
To produce a suitable preparation of active compound, 10 mg of active compound are dissolved in 0.5 ml solvent, and the concentrate is diluted with solvent to the desired concentration.
Five adult engorged female ticks (Boophilus microplus) are injected with 1 μl compound solution into the abdomen. The ticks are transferred into replica plates and incubated in a climate chamber.
After 7 days egg deposition of fertile eggs is monitored. Eggs where fertility is not visible are stored in a climate chamber till hatching after about 42 days. An efficacy of 100% means all eggs are infertile; 0% means all eggs are fertile.

Ctenocephalides felis [2] = assay: Ctenocephalides felis oral test; settings: 48 h, 100 ppm in cattle blood, after 2 days
Description: as §3
To produce a suitable preparation of active compound, 10 mg of active compound are dissolved in 0.5 ml solvent, and the concentrate is diluted with cattle blood to the desired concentration.
Approximately 20 adult unfed cat fleas (Ctenocephalides felis) are placed in flea chambers. The blood chamber, sealed with parafilm on the bottom, are filled with cattle blood supplied with compound solution and placed on the gauze covered top of the flea chamber, so that the fleas are able to suck the blood. The blood chamber is heated to 37° C. whereas the flea chamber is kept at room temperature.
After 2 days mortality in % is determined. 100% means all the fleas have been killed; 0% means none of the fleas have been killed.

Myzus persicae [3] = assay: Myzus persicae oral test; settings: 120 h
Description: • Solvent: 100 parts by weight acetone
To produce a suitable preparation of active compound, 1 part by weight of active compound is mixed with the stated amount of solvent, and the concentrate is diluted with water to the desired concentration. 50 μl compound solution is filled in microtiter plates and 150 μl IPL41 insect medium (33%+15% sugar) is added to obtain a total volume of 200 μl per well. Afterwards the plates are sealed with parafilm through which a mixed population of the green peach aphid (Myzus persicae) can suck on the compound preparation.
(§4) After 5 days mortality in % is determined. 100% means all aphids have been killed and 0% means none of the aphids have been killed.

Nezara viridula = Nezara viridula spray test; settings: 96 h
Description: (§5) • Solvent: 78.0 parts by weight of acetone • 1.5 parts by weight of dimethylformamide • Emulsifier: alkylarylpolyglycol ether
(§6) To produce a suitable preparation of active compound, 1 part by weight of active compound is mixed with the stated amount of solvent, and the concentrate is diluted with water, containing an emulsifier concentration of 1000 ppm, to the desired concentration. Further test concentrations are prepared by dilution with emulsifier containing water.
Barley plants (Hordeum vulgare) infested with larvae of the southern green stink bug (Nezara viridula) are sprayed with a test solution containing the desired concentration of the active ingredient.
After 4 days mortality in % is determined. 100% means all the stink bugs have been killed; 0% means none of the stink bugs have been killed.

Phaedon cochleariae = Phaedon cochleariae spray test; settings: 168 h, after 7 days
Description: as §5
as §6, with “solvents” for “solvent,”, “and” for “and the concentrate”
Chinese cabbage (Brassica pekinensis) leaf disks are sprayed with a preparation of the active ingredient of the desired concentration. Once dry, the leaf disks are infested with mustard beetle larvae (Phaedon cochleariae).
After 7 days mortality in % is determined. 100% means all beetle larvae have been killed and 0% means none of the beetle larvae have been killed.

Spodoptera frugiperda = Spodoptera frugiperda spray test; settings: 168 h
Description: (§7) • Solvent: 78.0 parts by weight acetone • 1.5 parts by weight dimethylformamide • Emulsifier: alkylarylpolyglycol ether
as §6, with “solvents” for “solvent,”, “and” for “and the concentrate”
Maize (Zea mays) leaf sections are sprayed with a preparation of the active ingredient of the desired concentration. Once dry, the leaf sections are infested with fall armyworm larvae (Spodoptera frugiperda).
After 7 days mortality in % is determined. 100% means all caterpillars have been killed and 0% means none of the caterpillars have been killed.

[4] = system: Aedes aegypti strain MONHEIM; assay: Aedes aegypti test (surface treatment & contact assay); settings: 24 hours after contact, read-out: efficacy (mortality); for mortality at 20 mg/m2: surface concentration 20 mg/m^2, 30 min exposure
Description: (§8) • Solvent: Aceton+2000 ppm rapeseed oil methyl ester (RME)
(§9) In order to produce a sufficient, active ingredient containing solution it is necessary to solve the test compound in the solvent-mix (acetone at 2 mg/ml/RME 2000 ppm). This solution is pipetted onto a glazed tile and after evaporation of the acetone, adult mosquitoes of the species Aedes aegypti strain MONHEIM are placed onto the dried surface. The exposure time is 30 minutes.
(§10) Mortality in percent (%) is determined 24 hours after contact of the insects to the treated surface. 100% mortality means that all tested insects are dead, whereas 0% means that no insect died.

[5] = system: Anopheles funestus strain FUMOZ-R; assay: Anopheles funestus test (surface treatment & contact assay); settings: 24 hours after contact, read-out: efficacy (mortality); for mortality at 4 mg/m2: surface concentration 4 mg/m^2, 30 min exposure; for mortality at 20 mg/m2: surface concentration 20 mg/m^2, 30 min exposure
Description: as §8
as §9, with “Anopheles funestus” for “Aedes aegypti”, “FUMOZ-R (Hunt et al., Med. Vet. Entomol. 2005 September; 19(3): 271-275)” for “MONHEIM”
as §10

[6] = system: Musca domestica strain WHO-N; assay: Musca domestica test (surface treatment & contact assay); settings: 24 hours after contact, read-out: efficacy (mortality)
Description: as §8
as §9, with “flies” for “mosquitoes”, “Musca domestica” for “Aedes aegypti”, “WHO-N” for “MONHEIM”
as §10

Myzus persicae [7] = assay: Myzus persicae spray test; settings: 120 h
Description: as §7
as §6, with “solvents” for “solvent,”, “and” for “and the concentrate”
Chinese cabbage (Brassica pekinensis) leaf disks infected with all instars of the green peach aphid (Myzus persicae), are sprayed with a preparation of the active ingredient of the desired concentration.
as §4

Nilaparvata lugens = Nilaparvata lugens spray test; settings: 96 h
Description: as §5
as §6, with “solvents” for “solvent,”, “and” for “and the concentrate”
Rice plants (Oryza sativa) are sprayed with a preparation of the active ingredient of the desired concentration and the plants are infested with the brown planthopper (Nilaparvata lugens).
After 4 days mortality in % is determined. 100% means all planthoppers have been killed and 0% means none of the planthoppers have been killed.

Rhipicephalus sanguineus = Rhipicephalus sanguineus in-vitro contact test, adult brown dog ticks
Description: as §1
as §2, with “brown dog ticks (Rhipicephalus sanguineus),” for “cat fleas (Ctenocephalides felis),”, “ticks” for “fleas”, “ticks,” for “fleas,”
An efficacy of 100% means all ticks are dead or moribund; 0% means no ticks are dead or moribund.

[8] = surface concentration 4 mg/m^2, 30 min exposure

SMILES | pest or weed control at 5 µg/cm2 (Ctenocephalides felis [1]) [%] | pest or weed control at 0.02 mg (Boophilus microplus) [%] | mortality at 100 ppm (Ctenocephalides felis [2]) [%] | mortality at 4 ppm (Myzus persicae [3]) [%] | mortality at 20 ppm (Myzus persicae [3]) [%] | mortality at 500 g/ha (Nezara viridula) [%] | mortality at 500 g/ha (Phaedon cochleariae) [%] | mortality at 500 g/ha (Spodoptera frugiperda) [%] | mortality at 4 mg/m2 [4, 8] [%] | mortality at 20 mg/m2 [4] [%] | mortality at 4 mg/m2 [5] [%] | mortality at 20 mg/m2 [5] [%] | mortality at 20 mg/m2 ([6]; surface concentration 20 mg/m^2, 30 min exposure) [%] | mortality at 500 g/ha (Myzus persicae [7]) [%] | mortality at 500 g/ha (Nilaparvata lugens) [%] | efficacy (ticks dead or moribund) (Rhipicephalus sanguineus; 1 μg/cm^2, after 48 hours) [%] | efficacy (ticks dead or moribund) (Rhipicephalus sanguineus; 5 μg/cm^2, after 48 hours) [%] | mortality at 4 mg/m2 [6, 8] [%]
CC(c1ncnn1-c1ncccn1)N(Cc1ncccn1)C(=O)c1cc(Cl)cc(C(F)(F)F)c1 (stereo not drawn) [Example I-010] | 100 | 100 | 100 | 100 | 100 | 100 | 100 | 100 | 80 to 100 | 90 to 100 | 85 to 100 | 85 to 100 | 90 to 100 | – | – | – | – | –
COCCN(C(=O)c1cc(Cl)cc(S(C)(=O)=O)c1)C(C)c1ncnn1-c1ncccn1 (stereo not drawn) [Example I-031] | 80 | 100 | 100 | 100 | – | 100 | – | – | – | – | – | 85 to 100 | – | 100 | 100 | – | – | –
CC(=O)NCCN(C(=O)c1cc(Cl)cc(C(F)(F)F)c1)C(C)c1ncnn1-c1ncccn1 (stereo not drawn) [Example I-043] | – | – | – | 100 | – | 100 | – | 100 | – | – | – | – | – | 100 | – | – | – | –
COCCN(C(=O)c1cc(Cl)cc(C(F)(F)F)c1)C(C)c1ncnn1-c1ncccn1 (stereo not drawn) [Example I-005] | – | 100 | 100 | 100 | 100 | 90 | 100 | 100 | – | – | – | – | – | – | – | 80 | 80 | –
CC(c1ncnn1-c1ncccn1)N(C(=O)c1cc(Cl)cc(C(F)(F)F)c1)C1CS(=O)(=O)C1 (stereo not drawn) [Example I-025] | – | – | 100 | 100 | 100 | 100 | 100 | – | – | 90 to 100 | 85 to 100 | 85 to 100 | – | – | 90 | – | – | –
CC(c1ncnn1-c1ncccn1)N(CC1CSC1)C(=O)c1cc(Cl)cc(C(F)(F)F)c1 (stereo not drawn) [Example I-011] | – | 95 | 100 | 100 | 100 | 100 | 100 | 100 | – | 90 to 100 | 85 to 100 | 85 to 100 | – | 100 | 100 | – | – | 90 to 100
CSCCN(C(=O)c1cc(Cl)cc(Cl)c1)C(C)c1ncnn1-c1ccc(C#N)cn1 (stereo not drawn) [Example I-036] | 100 | – | – | 100 | – | 90 | – | 100 | – | – | – | – | – | 90 | – | – | – | –
CSCCN(C(=O)c1cc(F)cc(C2CC2)c1)C(C)c1ncnn1-c1ccc(C#N)cn1 (stereo not drawn) [Example I-040] | 100 | – | – | – | – | – | – | – | – | – | – | – | – | 100 | – | – | – | –
CC(c1ncnn1-c1ncccn1)N(CCNS(C)(=O)=O)C(=O)c1cc(Cl)cc(C(F)(F)F)c1 (stereo not drawn) [Example I-041] | – | – | – | 100 | – | – | – | 100 | – | – | – | – | – | 90 | – | – | – | –
CCOC(=O)NCCN(C(=O)c1cc(Cl)cc(C(F)(F)F)c1)C(C)c1ncnn1-c1ncccn1 (stereo not drawn) [Example I-042] | – | – | – | 100 | – | 100 | – | 100 | – | – | – | – | – | 100 | 100 | – | – | –
CC(c1ncnn1-c1ncccn1)N(CC1OCCO1)C(=O)c1cc(Cl)cc(C(F)(F)F)c1 (stereo not drawn) [Example I-023] | 80 | 100 | 100 | 100 | – | – | – | 100 | – | – | – | 85 to 100 | – | 100 | – | – | – | –
CSCCN(C(=O)c1cc(Cl)cc(S(F)(F)(F)(F)F)c1)C(C)c1ncnn1-c1ccc(C#N)cn1 (stereo not drawn) [Example I-039] | 100 | – | – | – | – | 100 | – | 100 | – | – | – | – | – | 100 | – | – | – | –
CCON(C(=O)c1cccc(C(F)(F)F)c1)C(C)c1ncnn1-c1ncccn1 (stereo not drawn) [Example I-029] | 100 | 100 | 80 | 100 | – | 100 | – | – | – | – | – | – | – | – | – | – | 80 | –
CSCCN(C(=O)c1cc(Cl)cc(S(C)(=O)=O)c1)C(C)c1ncnn1-c1ncccn1 (stereo not drawn) [Example I-032] | 100 | – | – | 100 | – | 100 | – | – | – | – | – | – | – | 90 | 100 | – | – | –
